In PMC4695662 (BioMed Research International, 2015):

What was measured:
[1] = test system: Oat1 and Oat3; experiment: Accumulation of PAH in kidney tissue; assay type: in vivo, mice; details: all sampling times after i.v. PAH, compared with C-1 (p < 0.01); in words
Description: The mice renal homogenate was prepared by Shihana et al. protocol. Each right kidney was cut into small pieces, which were put into a glass homogenizing tube containing PBS (200 mM sucrose, 137 mM NaCl, 2.7 mM KCl, 10 mM Na2HPO4, and 2 mM NaH2PO4; pH 7.4) at a ratio of 8 mL/g wet weight and then were homogenized with a motor-driven Teflon pestle (1000 rpm/min) and spun down for 30 min at 20,000 ×g. The supernatant was isolated and then stored at −20°C until determination. The kidney homogenates were prepared from each group which was removed at 1, 5, 10, 20, and 30 min after i.v. PAH. Protein content of kidney homogenates was quantified using the Lowry Folin phenol reagent (Nanjing Jiancheng Bioengineering Institute, Ltd., China, Lot. 130918). The concentrations of PAH in kidney homogenate were determined the same as that in the sera.

[2] = test system: Oat1 and Oat3; experiment: PAH uptake by mice renal slices after treatment; assay type: in vivo; details: 2 mM PAH, 20 min, 37°C, slices from mice treated twice a day for five days; in words
Description: The uptake of PAH by mice renal slices was investigated using the procedures described by Henderson and Lindup. Briefly, mice were executed, and the kidneys were immediately harvested, decapsulated, and placed in an ice-cold oxygenated rinse PBS (pH 7.4). Renal slices (weight 10–20 mg/slice) were cut freehand with Gillette valet strip blades to about 0.2 inches in length (Sabre International Products Ltd., Reading, UK). Slices of one kidney were preincubated for 5 min at 37°C and incubated in a 12-well plate with 1 mL of oxygenated PAH-buffer which consisted of 2 mM PAH, 97 mM NaCl, 40 mM KCl, 0.74 mM CaCl2, and 7.5 mM sodium phosphate-chloride buffer in each well. The uptake study was carried out at 37°C in the shaking bath. After incubating for 20 min, each slice was rapidly removed from the PAH-buffer, immediately inactivated the proteins with trichloroacetic acid, was washed in ice-cold saline, was blotted on filter paper, was weighed, and then was homogenized at a ratio of 3 mL/g wet weight. The following operations were the same as described in Section 2.6.

[3] = test system: Oat1 mRNA; experiment: Oat1 mRNA expression in kidney by real-time PCR; assay type: in vivo; details: renal cortex of mice
Description: (§1) Total RNA was extracted using Trizol reagent from renal cortical tissues according to the manufacturer's instructions and RNA concentration and purity were evaluated by measuring the ratio of A260 nm/A280 nm. First-strand cDNA was generated by adding 1 μg total RNA; 2 μL 5x gDNA Eraser Buffer; 1 μL gDNA Eraser; 5 μL RNase Free dH2O (step 1: 42°C, 2 min for genomic DNA elimination reaction); […]; 1 μL Prime Script RT Enzyme Mix I; 1 μL RT Primer Mix; 4 μL RNase Free dH2O; and 10 μL reaction solution from step 1, which were used to reach a total reaction volume of 20 μL. The condition of reverse-transcription (RT) reaction was as follows, 15 min at 37°C and 85°C for 5 s, and stored at 4°C. […]
(§2) The real-time quantitative PCR was conducted in ABI 7500 (Applied Biosystems, USA) and the cycling program was set at 1 cycle of predenaturation at 95°C for 30 s and then 40 cycles at 95°C for 15 s, 56°C for 30 s, and 72°C for 31 s. […] Quantification of the target cDNAs in all samples was normalized to GAPDH […] (Cttarget − CtGAPDH = ΔCt) and the difference in expression for each target cDNA in the investigated groups was expressed to the amount in the water control group (ΔCttreated − ΔCtcontrol = ΔΔCt). Fold changes in target gene expression were determined by taking 2 to the power of this number (2^−ΔΔCt).

[4] = test system: Oat3 mRNA; experiment: Oat3 mRNA expression in kidney by real-time PCR; assay type: in vivo; details: renal cortex of mice
Description: as §1, §2

[5] = test system: Oat1 and Oat3; experiment: PAH pharmacokinetic studies in mice sera after oral treatment with investigational samples; details: in words, versus control
Description: All mice were given standard mice chows and pure water ad libitum and housed at 20~26°C.
On the experiment day, 60 min after the last administration of investigational samples, all mice were single i.v. PAH (30 mg/kg B.W., aqueous solution), respectively, according to the protocol of Bertani et al. [16] and blood samples were collected from 10 mice/group by euthanization in each time point at 1.0, 2.5, 5.0, 7.5, 10.0, 20.0, and 30.0 min after PAH injection. Blood samples were centrifuged at 2000 ×g for 5 min. The obtained sera were stored at −20°C until measurement.
The concentration of PAH in sera was determined according to Saikan and Kiguchi [19] method. The sera concentration versus time curve for PAH, for each individual animal, was fitted with PK software DAS 2.0. The data were fitted to a biexponential curve. The choice of the best fit was based on the determination of coefficient values (R ^2) and LSD test [20]. All fits should have R ^2 values > 0.98. […] Concentration of PAH in serum was measured using the method described by Di Giusto et al. [21].

[Cl][Hg][Cl] [HgCl2]
PAH accumulations in the kidneys [1]: observably increased | Active uptake of PAH by renal slices [2]: interfered with the PAH uptake | Reduction of Oat1 mRNA expression [3]: 40% | Decrease in Oat3 mRNA level [4]: 40% | Change of area under the curve (AUC0–30 min) of serum PAH [5]: significant increase | Change of total volume of distribution (VdT) of serum PAH [5]: obvious decrease
